Key:
Amaranthus rudis (AMATA) = assay: Test F preemergence, alone and in mixture with rimsulfuron, AMATA; format: in vivo; conditions: 21 days after treatment, 0-100 scale
Outline: (§1)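 Greenhouse pot plants treated preemergence with compound at 70 and 105 g ai/ha, rimsulfuron at 8.8 and 17.5 g ai/ha, or mixtures; 27° C day/21° C night, 14 hour photoperiod. Injury scored at 21 days after treatment against solvent-sprayed controls; expected additive effect of mixtures calculated by Colby's equation.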

Setaria faberii (SETFA) = assay: Test F preemergence, alone and in mixture with rimsulfuron, SETFA; format: in vivo; conditions: 21 days after treatment, 0-100 scale
Description: Abutilon theophrasti (ABUTH), Chenopodium album (CHEAL), Amaranthus rudis (AMATA), Setaria faberii (SETFA), Panicum dichotomiflorum (PANDI), and Digitaria sanguinalis (DIGSA) were grown from seed in pots of an artificial potting mixture in a greenhouse. Compounds of the present invention were applied at 70 and 105 g ai/ha preemergence. Rimsulfuron was applied at 8.8 and 17.5 g ai/ha. Mixtures of the compounds of the present invention and rimsulfuron were also applied.
(§2) Following application, the plants were maintained by watering as needed. A fertilizer solution of Peter's 20-20-20 (10 pounds/5 gallons of water) plus Sprint 330, a Iron Chelate micronutrient, (113.5 grams/5 gallons of water) was injected into the water with an Anderson fertilizer injection system to provide approximately 219 ppm of nitrogen with each watering. Artificial lighting was used to supplement natural light to produce a 14 hour photoperiod and: an additional one hour light period was used between 1:00 am to 2:00 am for a night interruption. Greenhouse temperatures were targeted for 27° C. in the day and 21° C. at night. At 21 days after treatment, all plants were evaluated for injury as compared to control plants that were sprayed only with non-phytotoxic solvent.
Colby's equation was used to calculate the expected additive herbicidal effect of the mixtures of Compound 21 and the mixture partners listed above. […]

guineagrass = assay: Test D guineagrass; format: in vivo, Panicum maximum; conditions: Postemergence, 0 to 100 scale
tall mallow = assay: Test D tall mallow; format: in vivo, Malva sylvestris; conditions: Postemergence, 0 to 100 scale
Green foxtail [1] = assay: Test D green foxtail; format: in vivo; conditions: Postemergence, 0 to 100 scale, 0 no injury, 100 complete control
Green foxtail [2] = assay: Test D green foxtail; format: in vivo; conditions: Rate 250 g/ha; Postemergence; 0 to 100 scale
certain weeds = assay: Test F overall statement on synergism with rimsulfuron (Colby's equation); format: in vivo; conditions: combinations with rimsulfuron, preemergence
Description: as §2, with “Abutilon theophrasti (ABUTH), Chenopodium album (CHEAL), Amaranthus rudis (AMATA), Setaria […]), Panicum dichotomiflorum (PANDI), and Digitaria sanguinalis (DIGSA) were grown from seed in pots of an artificial potting mixture in a greenhouse. Compounds of the present invention were applied at 70 and 105 g ai/ha preemergence. Rimsulfuron was applied at 8.8 and 17.5 g ai/ha. Mixtures of the compounds of the present invention and rimsulfuron were also applied. Following” for “Following”, “solvent. […] Colby's equation was used to calculate the expected additive herbicidal effect of the mixtures of Compound 21 and the mixture partners listed above. […]” for “solvent.”

pitted morningglory = assay: Test D pitted morningglory; format: in vivo, Ipomoea lacunosa; conditions: Postemergence, 0 to 100 scale
sourgrass = assay: Test D sourgrass; format: in vivo, Trichachne insularis; conditions: Postemergence, 0 to 100 scale
[3] = system: Abutilon theophrasti (ABUTH); assay: Test F preemergence, alone and in mixture with rimsulfuron, ABUTH; format: in vivo; conditions: 21 days after treatment, 0-100 scale
Outline: as §1

itchgrass = assay: Test D itchgrass; format: in vivo, Rottboellia exaltata; conditions: Postemergence, 0 to 100 scale
dallisgrass = assay: Test D dallisgrass; format: in vivo, Paspalum dilatatum; conditions: Postemergence, 0 to 100 scale
large crabgrass = assay: Test D large crabgrass; format: in vivo, Digitaria sanguinalis; conditions: Postemergence, 0 to 100 scale
Green foxtail [4] = assay: Test D green foxtail; format: in vivo; conditions: Postemergence, 0 to 100 scale, 0 no injury, 100 complete control; remark: listed apart in the source
[5] = Alone: Cmpd. rate 70, Rimsulfuron 0
[6] = Alone: Cmpd. rate 105, Rimsulfuron 0
[7] = Rate 16 g/ha, 0 no injury, 100 complete control
[8] = Rate 32 g/ha, 0 no injury, 100 complete control
[9] = Rate 64 g/ha, 0 no injury, 100 complete control
[10] = Rate 125 g/ha, 0 no injury, 100 complete control

CC(C)N(C(=O)n1oc(=O)n(C(C)C)c1=O)c1ccc(F)cc1 [Compound 131]
AMATA Observed (Amaranthus rudis (AMATA); [5]): 50%
AMATA Observed (Amaranthus rudis (AMATA); [6]): 40%
SETFA Observed (Setaria faberii (SETFA); [5]): 35%
SETFA Observed (Setaria faberii (SETFA); [6]): 65%
Plant response rating, Guineagrass (guineagrass; [7]): 0
Plant response rating, Guineagrass (guineagrass; [8]): 20
Plant response rating, Guineagrass (guineagrass; [9]): 100
Plant response rating, Guineagrass (guineagrass; [10]): 100
Plant response rating, Guineagrass (guineagrass; Rate 250 g/ha): 100
Plant response rating, Tall Mallow (tall mallow; [7]): 0
Plant response rating, Tall Mallow (tall mallow; [8]): 30
Tall Mallow plant response rating (tall mallow; [9]): 40
Tall Mallow plant response rating (tall mallow; [10]): 90
Plant response rating, Tall Mallow (tall mallow; Rate 250 g/ha): 100
Plant response rating, Green foxtail (Green foxtail [1]; Rate 64 g/ha): 100
Plant response rating, Green foxtail (Green foxtail [1]; Rate 125 g/ha): 100
Plant response rating, Green foxtail (Green foxtail [2]): 100
Weed control of combination with rimsulfuron compared with expectation from Colby's equation (certain weeds): better control of certain weeds than expected
Plant response rating, P. morninglory (pitted morningglory; [7]): 0
Plant response rating, P. morninglory (pitted morningglory; [8]): 0
Plant response rating, P. morninglory (pitted morningglory; [9]): 0
Plant response rating, P. morninglory (pitted morningglory; [10]): 0
Plant response rating, P. morninglory (pitted morningglory; Rate 250 g/ha): 100
Sourgrass plant response rating (sourgrass; [10]): 50
Plant response rating, Sourgrass (sourgrass; Rate 250 g/ha): —80
ABUTH Observed [3, 5]: 40%
ABUTH Observed [3, 6]: 60%
Plant response rating, Itchgrass (itchgrass; [7]): 0
Plant response rating, Itchgrass (itchgrass; [8]): 0
Plant response rating, Itchgrass (itchgrass; [9]): 20
Plant response rating, Itchgrass (itchgrass; [10]): 100
Plant response rating, Itchgrass (itchgrass; Rate 250 g/ha): 100
Plant response rating, Dallisgrass (dallisgrass; [7]): 20
Plant response rating, Dallisgrass (dallisgrass; [8]): 60
Plant response rating, Dallisgrass (dallisgrass; [9]): 100
Plant response rating, Dallisgrass (dallisgrass; [10]): 100
Plant response rating, Dallisgrass (dallisgrass; Rate 250 g/ha): 100
Plant response rating Large crabgrass (large crabgrass; [7]): 90
Plant response rating Large crabgrass (large crabgrass; [8]): 100
Plant response rating Large crabgrass (large crabgrass; [9]): 100
Plant response rating Large crabgrass (large crabgrass; [10]): 100
Plant response rating Large crabgrass (large crabgrass; Rate 250 g/ha): 100
Plant response rating, Green foxtail (Green foxtail [4]; Rate 16 g/ha): 0
Plant response rating, Green foxtail (Green foxtail [4]; Rate 32 g/ha): 60
